pIC50: −log10 of the molar value. Counter-ions that a name gives are not always drawn.
Target: T1, human XIAP_BIR3 domain purified protein (Homo sapiens, UniProt P98170)
T1 construct: purchased R & D
Test: XIAP binding inhibitory activity, HTRF method with b-Smac ligand
Conditions: for inhibition at 3 µM: test compound 3 μM, first symbol of the cell, read-out: XIAP binding inhibition rate when the concentration of the test compound is 3 μM; for pIC50: second symbol of the cell, read-out: XIAP binding 50% inhibitory concentration (IC50 value)
Procedure: Human XIAP binding inhibitory activity were measured by the Homogeneous Time Resolved Fluorescence (HTRF) method with using commercially available human XIAP_BIR3 domain purified protein (R & D) and as a ligand a Smac N-terminal peptide (AVPIAQK (SEQ ID NO: 1)) (hereinafter referred to as “b-Smac”; Peptide Research Laboratories, Inc.) biotinylated at the C-terminus according to a conventional method.
The HTRF method will be described in detail below. A test compound diluted with a reaction buffer was added to a 384-well white shallow bottom plate (Greiner 784076) at 1 μL/well and flash centrifuged for 30 seconds. Subsequently, human XIAP_BIR3 domain purified protein was diluted with the reaction buffer (25 mM HEPES Buffer containing 100 mM NaCl, 0.1% BSA, and 0.1% triton X-100, pH 7.5) to obtain a 90 nM sample diluent, and the resultant sample diluent was added to the above-mentioned white superficial plate at 4.5 μL/well and flash centrifuged for 30 seconds. Subsequently, b-Smac diluted to 90 nM with the reaction buffer was added to the above-mentioned white superficial plat at 4.5 μL/well and flash centrifuged for 30 seconds. A mixed solution of Anti-6 HIS-Cryptate (Eu3+Cryptate-conjugated mouse monoclonal antibody anti-6 Histidine; cisbio) and Streptavidin-XL^ent! (Highgrade XL665-conjugated streptavidin; cisbio) both diluted 100-fold with HTRF detection buffer (cisbio) at a volume ratio of 1:1 was added to the above white superficial plate at 10 μL/well. After flash centrifuging the white shallow bottom plate for 30 seconds, the white shallow bottom plate was left at room temperature for 4 hours or more in the dark. The white superficial plate after being left was subjected to fluorescence intensity measurement (excitation wavelength: 320 nm, fluorescence wavelength: 665 nm and 615 nm) by EnVision (Perkin Elmer).
The binding inhibition rate (%) was calculated based on the HTRF ratio in the presence of the test compound to the HTRF ratio in the absence of the test compound (fluorescence intensity at 665 nm/fluorescence intensity at 615 nm).

T1 sequence (P98170 252-356 limits assumed): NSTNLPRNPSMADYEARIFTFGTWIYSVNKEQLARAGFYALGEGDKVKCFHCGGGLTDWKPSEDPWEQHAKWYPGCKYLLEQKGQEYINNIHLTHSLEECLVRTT

Row | Structure (SMILES) | inhibition at 3 µM | pIC50
1 | CN[C@@H](C)C(=O)N[C@H](C(=O)N1CCN(C(=O)c2cc3cc(F)c(F)cc3n2C)CC1)C1CCCCC1 [Example 41, (S)—N—((S)-1-Cyclohexyl-2-(4-(5,6-difluoro-1-methyl-1H-indole-2-carbonyl)piperazin-1-yl)-2-oxoethyl)-2-(methylamino)propanamide] | > 75% | –
2 | CN[C@@H](C)C(=O)N[C@H](C(=O)N1CCN(C(=O)c2cc3ccccn3c2)CC1)C1CCCCC1 [Example 7, (S)-N-((S)-1-cyclohexyl-2-(4-(indolizine-2-carbonyl)piperazin-1-yl)-2-oxoethyl)-2-(methylamino)propanamide] | > 75% | –
3 | CN[C@@H](C)C(=O)N[C@H](C(=O)N1CCN(C(=O)c2cc(OCCOC)nn2C)CC1)C1CCCCC1 [Example 8, (S)-N-((S)-1-cyclohexyl-2-(4-(3-(2-methoxyethoxy)-1-methyl-1H-pyrazole-5-carbonyl)piperazin-1-yl)-2-oxoethyl)-2-(methylamino)propanamide] | > 25% | –
4 | CN[C@@H](C)C(=O)N[C@H](C(=O)N1CCN(C(=O)c2cc3cc(F)c(F)cc3n2CCOCCOCCO)CC1)C1CCCCC1 [Example 47, (S)—N—((S)-1-Cyclohexyl-2-(4-(5,6-difluoro-1-(2-(2-(2-hydroxyethoxy)ethoxy)ethyl)-1H-indole-2-carbonyl)piperazin-1-yl)-2-oxoethyl)-2-(methylamino)propanamide] | – | 4.52 to 5.52
5 | CN[C@@H](C)C(=O)N[C@H](C(=O)N1CCN(C(=O)c2c(C(=O)NCCOCCOCCOCCOc3ccc(NC(=O)C[C@@H]4N=C(c5ccc(Cl)cc5)c5c(sc(C)c5C)-n5c(C)nnc54)cc3)c3cc(F)c(F)cc3n2C)CC1)C1CCCCC1 [Example 79, N-(2-(2-(2-(2-(4-(2-((S)-4-(4-chlorophenyl)-2,3,9-trimethyl-6H-thieno[3,2-f][1,2,4]triazolo[4,3-a][1,4]diazepin-6-yl)acetamido)phenoxy)ethoxy)ethoxy)ethoxy)ethyl)-2-(4-((S)-2-cyclohexyl-2-((S)-2-(methylamino)propanamido)acetyl)piperazine-1-carbonyl)-5,6-difluoro-1-methyl-1H-indole-3-carboxamide] | – | 5.52 to 6.52
6 | CN[C@@H](C)C(=O)N[C@H](C(=O)N1CCN(C(=O)c2c(C(=O)N(C)CCOC)c3ccc(OC)cc3n2C)CC1)C1CCCCC1 [Example 26, 2-(4-((S)-2-Cyclohexyl-2-((S)-2-(methylamino)propanamido)acetyl)piperazine-1-carbonyl)-6-methoxy-N-(2-methoxyethyl)-N,1-dimethyl-1H-indole-3-carboxamide Hydrochloride] | 50 to 75% | –
7 | CN[C@@H](C)C(=O)N[C@H](C(=O)N1CCN(C(=O)c2c(C(=O)N3CCC[C@H]3COC)c3ccc(OC)cc3n2C)CC1)C1CCCCC1 [Example 29, (S)—N—((S)-1-Cyclohexyl-2-(4-(6-methoxy-3-((S)-2-(methoxymethyl)pyrrolidine-1-carbonyl)-1-methyl-1H-indole-2-carbonyl)piperazin-1-yl)-2-oxoethyl)-2-(methylamino)propanamide Hydrochloride] | 50 to 75% | –
8 | CN[C@@H](C)C(=O)N[C@H](C(=O)N1CCN(C(=O)c2cc3ccnn3cc2C)CC1)C1CCCCC1 [Example 3, (S)-N-((S)-1-cyclohexyl-2-(4-(6-methylpyrazolo[1,5-a]pyridine-5-carbonyl)piperazin-1-yl)-2-oxoethyl)-2-(methylamino)propanamide] | 25 to 50% | –
9 | CN[C@@H](C)C(=O)N[C@@H](C(=O)N1CCN(C(=O)c2cc3cc(F)c(F)cc3n2CCOCCOCc2ccccc2)CC1)C1CCCCC1 [Example 46, (S)—N—((R)-2-(4-(1-(2-(2-(Benzyloxy)ethoxy)ethyl)-5,6-difluoro-1H-indole-2-carbonyl)piperazin-1-yl)-1-cyclohexyl-2-oxoethyl)-2-(methylamino)propanamide Hydrochloride] | – | 4.52 to 5.52
10 | CN[C@@H](C)C(=O)N[C@H](C(=O)N1CCN(C(=O)c2cc3ccc(OC)cc3n2C)C[C@H]1C)C1CCCCC1 [Example 24, (S)—N—((S)-1-cyclohexyl-2-((R)-4-(6-methoxy-1-methyl-1H-indole-2-carbonyl)-2-methylpiperazin-1-yl)-2-oxoethyl)-2-(methylamino)propanamide Hydrochloride] | > 75% | –
11 | CN[C@@H](C)C(=O)N[C@H](C(=O)N1CCN(C(=O)c2ccc3nc(C)n(C)c3c2)CC1)C1CCCCC1 [Example 18, (S)-N-((S)-1-cyclohexyl-2-(4-(1,2-dimethyl-1H-benzo[d]imidazole-6-carbonyl)piperazin-1-yl)-2-oxoethyl)-2-(methylamino)propanamide] | > 25% | –
12 | CN[C@@H](C)C(=O)N[C@H](C(=O)N1CCN(C(=O)c2c(C(=O)NCCOCCOCCOCCN3CCN(c4cc(Nc5ncc(C(=O)Nc6c(C)cccc6Cl)s5)nc(C)n4)CC3)c3cc(F)c(F)cc3n2C)CC1)C1CCCCC1 [Example 82, N-(2-Chloro-6-methylphenyl)-2-((6-(4-(1-(2-(4-((S)-2-cyclohexyl-2-((S)-2-(methylamino)propanamido)acetyl)piperazine-1-carbonyl)-5,6-difluoro-1-methyl-1H-indol-3-yl)-1-oxo-5,8,11-trioxa-2-azatridecan-13-yl)piperazin-1-yl)-2-methylpyrimidin-4-yl)amino)thiazole-5-carboxamide Trifluoroacetate] | – | 5.52 to 6.52
13 | CN[C@@H](C)C(=O)N[C@H](C(=O)N1C2CC1CN(C(=O)c1cc3cc(F)c(F)cc3n1C)C2)C1CCCCC1 [Example 60, (2S)-N-((1S)-1-cyclohexyl-2-(3-((5,6-difluoro-1-methyl-1H-indol-2-yl)carbonyl)-3,6-diazabicyclo[3.1.1]heptan-6-yl)-2-oxoethyl)-2 (methylamino)propanamide] | – | 4.52 to 5.52
14 | CN[C@@H](C)C(=O)N[C@H](C(=O)N1CCN(C(=O)c2ccc3cnn(C)c3c2)CC1)C1CCCCC1 [Example 17, (S)-N-((S)-1-cyclohexyl-2-(4-(1-methyl-1H-indazole-6-carbonyl)piperazin-1-yl)-2-oxoethyl)-2-(methylamino)propanamide] | > 25% | –
15 | C[C@@H]1CN(CC(=O)N2CCN(C(=O)c3cc4cc(F)c(F)cc4n3C)C[C@H]2C)[C@@H](COCCOCCOCCO)CN1 [Example 64, 1-((R)-4-(5,6-Difluoro-1-methyl-1H-indole-2-carbonyl)-2-methylpiperazin-1-yl)-2-((2R,5R)-2-(2-(2-(2-hydroxyethoxy)ethoxy)ethoxymethyl)-5-methylpiperazin-1-yl)ethan-1-one] | – | 4.52 to 5.52
16 | CN[C@@H](C)C(=O)N[C@H](C(=O)N1CCN(C(=O)c2cc3cc(F)c(F)cc3n2C)C[C@H]1C)C1CCCCC1 [Example 56, (S)—N—((S)-1-Cyclohexyl-2-((R)-4-(5,6-difluoro-1-methyl-1H-indole-2-carbonyl)-2-methylpiperazin-1-yl)-2-oxoethyl)-2-(methylamino)propanamide Trifluoroacetate] | – | 4.52 to 5.52
17 | CN[C@@H](C)C(=O)N[C@H](C(=O)N1CCN(C(=O)c2c(C(=O)N(C)CC(=O)OC)c3ccc(OC)cc3n2C)CC1)C1CCCCC1 [Example 28, Methyl N-(2-(4-((S)-2-cyclohexyl-2-((S)-2-(methylamino)propanamido)acetyl)piperazine-1-carbonyl)-6-methoxy-1-methyl-1H-indole-3-carbonyl)-N-methylglycinate Hydrochloride] | 50 to 75% | –
18 | COc1ccc2cc(C(=O)N3CCN(C(=O)CN4C[C@@H](C)NC[C@@H]4CO)CC3)n(C)c2c1 [Example 39, 2-((2R,5R)-2-(Hydroxymethyl)-5-methylpiperazin-1-yl)-1-(4-(6-methoxy-1-methyl-1H-indole-2-carbonyl)piperazin-1-yl)ethan-1-one hydrochloride] | 50 to 75% | –
19 | CCOc1cc(C(=O)N2CCN(C(=O)[C@@H](NC(=O)[C@H](C)NC)C3CCCCC3)CC2)n(C)n1 [Example 12, (S)-N-((S)-1-cyclohexyl-2-(4-(3-ethoxy-1-methyl-1H-pyrazole-5-carbonyl)piperazin-1-yl)-2-oxoethyl)-2-(methylamino)propanamide] | > 25% | –
20 | CN[C@@H](C)C(=O)N[C@H](C(=O)N1CCN(C(=O)c2cc3cc(F)ccc3n2CC(=O)NCCOCCOCCOCCNC(=O)C[C@@H]2N=C(c3ccc(Cl)cc3)c3c(sc(C)c3C)-n3c(C)nnc32)CC1)C1CCCCC1 [Example 77, (S)-N-((S)-2-(4-(1-(17-((S)-4-(4-chlorophenyl)-2,3,9-trimethyl-6H-thieno[3,2-f][1,2,4]triazolo[4,3-a][1,4]diazepin-6-yl)-2,16-dioxo-6,9,12-trioxa-3,15-diazaheptadecyl)-5-fluoro-1H-indole-2-carbonyl)piperazin-1-yl)-1-cyclohexyl-2-oxoethyl)-2-(methylamino)propanamide] | > 25% | –

Source: patent US12202829B2, “Heterocyclic compound” (FIMECS, Inc., priority 2018, dated 2025)
